Ends that are not written are not given here.
Key:
[1] = system: skin mast cells; test: Dye (Evan's blue) extravasation after intradermal injection; format: in vivo, rat
Experimental: (§1) 1. For extravasation experiments, male Sprague/Dawley rats, each weighing approximately 350 g (Taconic Farms, Germantown, N.Y.), were anesthetized with a single intraperitoneal injection of 0.5 ml ketamine and 0.5 ml xylazine (20 mg/ml each) and then injected intravenously with 0.1 ml of 1% Evan's blue 60 min prior to treatment.
(§2) 3. The pretreatment solution, when appropriate, was drawn first in the syringe followed by CRH from which it was separated by an air bubble. The pretreatment solution was injected first and was allowed to remain in the skin for 1 min; the needle was then changed, the air bubble ejected and CRH was injected and allowed to stay in the skin for 5 min. The animal was then killed by asphyxiation over CO2 vapor and decapitated; the skin was removed, turned over and photographed.

[2] = system: skin mast cells; test: Effect of drug pretreatment on dye extravasation induced by CRH; format: in vivo, rat; conditions: for Dye Extravasation (color intensity) by CRH after drug pretreatment: drug 10^-4 M pretreatment, then CRH 10^-4 M, n = 3
Experimental: as §1, §2

[3] = system: pleural mast cells; test: Histamine release from purified pleural mast cells; format: cell-based, rat
[4] = system: peritoneal mast cells; test: Histamine release from purified peritoneal mast cells; format: cell-based, rat
[5] = system: skin mast cells; test: Skin mast cell degranulation at injection site, light microscopy (toluidine blue); format: in vivo, rat; conditions: for Mast Cell Degranulation, Deg. MC: count of degranulated mast cells
Description: 4. In other rats, the skin was rapidly removed at the end of the injection period and was fixed in 4% paraformaldehyde for light microscopy (Theoharides et al., Int. Arch. Allergy Immunol. 102:352 (1993)), which is incorporated herein by reference in its entirety. The tissue was then frozen and thin sections (7 μ) were cut using a cryostat (Jung CM 3000, Leica, Luc. Deerfield, Ill.). The sections were stained with acidified (pH<2.5) toluidine blue (Sigma, St. Louis) and all mast cells were counted, by two different researchers blinded to the experimental conditions, at 400× magnification using a Diaphot inverted Nikon microscope (Don Santo, Mass.).

[6] = system: skin mast cells; test: Skin mast cell activation by CRH in rats treated neonatally with capsaicin; format: in vivo, rat; conditions: CRH 10^-4 M, neonatal capsaicin
[7] = system: skin mast cells; test: Ultrastructural analysis of CRH-treated skin mast cells; format: in vivo, rat; conditions: CRH-injected sites
Description: The effect of CRH on both vasodilation and mast cell activation was dose-dependent from 10^-4 M-10^-8 M (Table 1).

In the case of `C[C@H](N)C(=O)NCC(=O)N[C@H]1CSSC[C@@H](C(=O)O)NC(=O)[C@H](CO)NC(=O)[C@H]([C@@H](C)O)NC(=O)[C@H](Cc2ccccc2)NC(=O)[C@H]([C@@H](C)O)NC(=O)[C@H](CCCCN)NC(=O)[C@H](Cc2c[nH]c3ccccc23)NC(=O)[C@H](Cc2ccccc2)NC(=O)[C@H](Cc2ccccc2)NC(=O)[C@H](CC(N)=O)NC(=O)[C@H](CCCCN)NC1=O` [Somatostatin, somatostatin], the “fluid extravasation, substance alone” value ([1]; 10^-12 M) is reported as “still apparent”, the “fluid extravasation, substance alone” value ([1]; alone, as strong as that seen with CRH) is reported as “significant fluid extravasation” and the “Dye Extravasation (color intensity) by CRH after drug pretreatment” value (“Dye Extravasation (color intensity)” for short) [2] is reported as “more dye extravasation than CRH alone”.
For `CC(C)(C)c1ccc(C(O)CCCN2CCC(C(O)(c3ccccc3)c3ccccc3)CC2)cc1` (stereo not drawn) [Terfenadine, terfenadine], the “Dye Extravasation (color intensity)” value [2] was “reduced the CRH effect slightly”.
`OCCOCCN1CCN(C(c2ccccc2)c2ccc(Cl)cc2)CC1` (stereo not drawn) [Hydroxyzine, hydroxyzine] was tested, and the “Dye Extravasation (color intensity)” value [2] was “blocked the CRH effect entirely”.
In the case of substance P [SP], the “Histamine Release (% total), Pleural + Calcium” value ([3]; 10^-4 M) is reported as 49.346 % total, the “Histamine Release (% total), Pleural - Calcium” value ([3]; 10^-4 M) is reported as 54.591 % total and the “Histamine Release (% total), Pleural + Calcium” value ([3]; 10^-5 M) is reported as 22.919 % total. For the same compound, the “Histamine Release (% total), Pleural - Calcium” value ([3]; 10^-5 M) was 28.871 % total, the “Histamine Release (% total), Pleural + Calcium” value ([3]; 10^-6 M) was 2.088 % total and the “Histamine Release (% total), Pleural - Calcium” value ([3]; 10^-6 M) was 8.538 % total. The “Histamine Release (% total), Peritoneal Calcium” value ([4]; 10^-5 M) was 39.5 % total.
With `CN(C)CCC=C1c2ccccc2COc2ccccc21` [Doxepin, doxepin] the “Dye Extravasation (color intensity)” value [2] was “blocked the CRH effect entirely”.
With “[D-Phe^12 Nle^21,38, Ala^32 ]rCRH(12-41) [CRH-α]” the “inhibition of dye extravasation by CRH” value ([2]; antagonist 10^-4 M, CRH 10^-6 M) was “could not inhibit”, the “block of the effect of CRH” value ([2]; plasma extravasation and mast cell degranulation) was “did not block” and the “Mast Cell Degranulation, % total deg.” value ([5]; 10^-4 M) was 25 % total. The “Mast Cell Degranulation, Deg. MC” value ([5]; 10^-4 M) was 28.
“Corticotropin-Releasing Hormone (SEEPPISLDLTFHLLREVLEMARAEQLAQQAHSNRKLMEII; ends and bridges not checked; UniProt P06850 154-194, looked up) [CRH, major regulator of the hypothalamic-pituitary-adrenal axis; peptide from Sigma]” was tested, and the “Histamine Release (% total), Pleural + Calcium” value ([3]; 10^-4 M) was 22.06 % total, the “Histamine Release (% total), Pleural - Calcium” value ([3]; 10^-4 M) was 34.244 % total and the “Histamine Release (% total), Pleural + Calcium” value ([3]; 10^-5 M) was 2.102 % total. The “Histamine Release (% total), Pleural - Calcium” value ([3]; 10^-5 M) was 8.579 % total, the “Histamine Release (% total), Pleural + Calcium” value ([3]; 10^-6 M) was 1.411 % total and the “Histamine Release (% total), Pleural - Calcium” value ([3]; 10^-6 M) was 4.253 % total. For the same compound, the “histamine release from pleural mast cells” value ([3]; in words, required absence of extracellular calcium ions) was “induced histamine release”, the “dose dependence of effect on vasodilation and mast cell activation” value ([1]; 10^-4 M-10^-8 M) was “dose-dependent” and the “skin vascular permeability, as evidenced by dye extravasation” value ([1]; compared with equimolar C48/80 or SP) was “marked increases”. The “Histamine Release (% total), Peritoneal Calcium” value ([4]; 10^-4 M) was 25.5 % total, the “Histamine Release (% total), Peritoneal + Calcium” value ([4]; 10^-4 M) was 6.3 % total and the “Histamine Release (% total), Peritoneal Calcium” value ([4]; 10^-5 M) was 6.9 % total. For the same compound, the “Histamine Release (% total), Peritoneal + Calcium” value ([4]; 10^-5 M) was 1.9 % total, the “Histamine Release (% total), Peritoneal Calcium” value ([4]; 10^-6 M) was 4.9 % total and the “Histamine Release (% total), Peritoneal + Calcium” value ([4]; 10^-6 M) was 2.0 % total. For the same compound, the “effect on peritoneal mast cells (histamine release)” value ([4]; in words) was “largely ineffective”, the “Mast Cell Degranulation, Deg. MC” value ([5]; 10^-4 M) was 426 and the “Mast Cell Degranulation, % total deg.” value ([5]; 10^-5 M) was 37 % total. For the same compound, the “Mast Cell Degranulation, Deg. MC” value ([5]; 10^-5 M) was 327, the “Mast Cell Degranulation, % total deg.” value ([5]; 10^-6 M) was 42 % total and the “Mast Cell Degranulation, Deg. MC” value ([5]; 10^-6 M) was 331. The “Mast Cell Degranulation, % total deg.” value ([5]; 10^-7 M) was 37 % total, the “Mast Cell Degranulation, Deg. MC” value ([5]; 10^-7 M) was 329 and the “Mast Cell Degranulation, % total deg.” value ([5]; 10^-8 M) was 32 % total. For the same compound, the “Mast Cell Degranulation, Deg. MC” value ([5]; 10^-8 M) was 254, the “Mast Cell Degranulation, % total deg.” value ([5]; 10^-9 M) was 28 % total and the “Mast Cell Degranulation, Deg. MC” value ([5]; 10^-9 M) was 202. The “Mast Cell Degranulation, % total deg.” value ([5]; 10^-10 M) was 26 % total, the “Mast Cell Degranulation, Deg. MC” value ([5]; 10^-10 M) was 239 and the “mast cell activation in capsaicin-treated animals” value [6] was “unaffected”. For the same compound, the “ultrastructural signs of mast cell activation (loss of electron dense granule content)” value [7] was “obvious sign of activation”.
